Measured values as given in PMC8485799, “Synthesis and Antiprotozoal Profile of 3,4,5‐Trisubstituted Isoxazoles” (ChemistryOpen, 2021).
Where two headings read alike, the source gives them in different places.

Key:
[1] = tested on: epimastigote forms of Trypanosoma cruzi (Y strain); assay: Antiproliferative assay (XTT), epimastigote forms, 96 h; assay type: cell-based; conditions: for IC50: Trypanosoma cruzi, 96 h, read-out: T. cruzi IC50; for SIT-F, selectivity index (Fibroblast CC50/T. cruzi IC50): fibroblast vs epimastigote; for SIT-M, selectivity index (Macrophages CC50/T. cruzi IC50): macrophages vs epimastigote
Procedure: (§1) The antiproliferative activity was determined in promastigote forms of Leishmania amazonensis (WHOM/BR/75/JOSEFA strain) and epimastigote forms of Trypanosoma cruzi (Y strain). The promastigote forms of L. amazonensis were cultured in Warren medium (brain heart infusion, hemin, and folic acid; pH 7.4) supplemented with 10 % fetal bovine serum (FBS) at 25 °C. The epimastigote forms of T.cruzi were cultured in LIT medium (liver infusion tryptose; hemin, and folic acid; pH 7.4) supplemented with 10 % FBS at 28 °C. Cytotoxicity in mammalian cells was determined in fibroblast line (L929) and macrophages (J774 A1). Fibroblasts were cultured in DMEM medium (pH 7.2) supplemented with 10 % FBS at 37 °C in a 5 % CO2 atmosphere. Macrophages were cultured in RPMI‐1640 (pH 7.2) medium supplemented with 10 % FBS at 37 °C in a 5 % CO2 atmosphere.
(§2) Stock solutions of the compounds were prepared in DMSO and then diluted in the respective medium.
(§3) Promastigote forms (1×10^6 parasites.mL^−1) were cultured in 96‐well plates in the presence and absence of different concentrations of compounds diluted in Warren medium supplemented with 10 % FBS and incubated for 72 h. The epimastigote forms (1×10^6 parasites.mL^−1) were cultured in 96‐well plates in the presence and absence of different concentrations of compounds diluted in LIT medium supplemented with 10 % FBS and incubated for 96 h. After treatment, the parasites were incubated with a solution of 2,3‐bis(2‐methoxy‐4‐nitro‐5‐sulfophenyl)‐2H‐tetrazolium‐5‐carboxanilide (XTT; 0.5 mg.mL^−1) and phenazine methanesulfonate activator (PMS; 0.06 mg.mL^−1) in PBS for 4 h. Then, the absorbance was read in a microplate reader (Bio Tek‐Power Wave XS) at 450 nm.[20] The percentage of viable parasites was calculated in relation to the control in order to determine the concentration that inhibits 50 % of the protozoa (IC50). The control groups of each experiment received the same experimental conditions as the treated groups (cell concentration used, temperature, and incubation time).

[2] = Cytotoxicity assay in mammalian cells (MTT), macrophages, 48 h; assay type: cell-based; conditions: mouse, pH 7.2, 50 % inhibition of macrophages growth, 48 h, MTT
Procedure: as §1, §2
(§4) Fibroblast cell (2.5×10^5 cells.mL^−1) suspensions were prepared in DMEM medium supplemented with 10 % FBS and added to 96‐well plates. Then, the plates were incubated at 37 °C in a CO2 atmosphere for 24 h to obtain confluent cell growth. After incubation, cells were treated with different concentrations of compounds diluted in DMEM for 72 h or left untreated. Macrophage (5×10^5 cells.mL^−1) suspensions were prepared in RPMI‐1640 medium supplemented with 10 % FBS and added to 96‐well plates. Then, the plates were incubated at 37 °C in a CO2 atmosphere for 24 h to obtain confluent cell growth. After incubation, cells were treated with different concentrations of compounds diluted in RPMI‐1640 for 48 h or left untreated. After treatment, the medium was removed, and cells were incubated with MTT (2 mg.mL^−1) for 4 h. Then, DMSO was added for solubilization of the formazan and analyzed with a reading microplate reader (BIO‐TEK PowerWave XS spectrophotometer) at […].[20] The percentage of viable cells was calculated in relation to the untreated control group to determine the cytotoxic concentration in 50 % of the cells (CC50). The control groups of each experiment received the same experimental conditions as the treated groups (cell concentration used, temperature, CO2, and incubation time).

[3] = Cytotoxicity assay in mammalian cells (MTT), fibroblasts, 72 h; assay type: cell-based; conditions: mouse, pH 7.2, 50 % inhibition of fibroblast growth, 72 h, MTT
Procedure: as §1, §2, §4

[4] = tested on: promastigote forms of Leishmania amazonensis (WHOM/BR/75/JOSEFA strain); assay: Antiproliferative assay (XTT), promastigote forms, 72 h; assay type: cell-based; conditions: for IC50: Leishmania amazonensis, 72 h, read-out: L. amazonensis IC50; for SIL-F, selectivity index (Fibroblast CC50/L. amazonensis IC50): fibroblast vs promastigote; for SIL-M, selectivity index (Macrophages CC50/L. amazonensis IC50): macrophages vs promastigote
Procedure: as §1, §2, §3

| melting point [°C] | IC50 ([1]; epimastigote form, XTT) [µM] | Compound | IC50 [1] [µM] | SIT-F, selectivity index (Fibroblast CC50/T. cruzi IC50) [1] | SIT-M, selectivity index (Macrophages CC50/T. cruzi IC50) [1] | CC50 at 48 h [2] [µM] | CC50 at 72 h [3] [µM] | IC50 [4] [µM] | SIL-F, selectivity index (Fibroblast CC50/L. amazonensis IC50) [4] | SIL-M, selectivity index (Macrophages CC50/L. amazonensis IC50) [4] | CC50 at 48 h ([2]; J774 A1 macrophages) [µM] | CC50 at 72 h ([3]; L929 fibroblast cells) [µM] | IC50 ([4]; promastigote form, XTT) [µM] | Selectivity index (SI), overall ([4]; span over both cell lines (fibroblast, macrophages) and both parasites (L. amazonensis, T. cruzi)) |
| --- | --- | --- | --- | --- | --- | --- | --- | --- | --- | --- | --- | --- | --- | --- |
| 132.2 to 135.4 | 15 ± 0.8 | COc1ccc(NCc2c(C(=O)NN)noc2-c2ccccc2)cc1 [3 bc] | – | 12.69 | 12.38 | – | – | – | 15.35 | 14.97 | 186 ± 6.1 | 190 ± 3.7 | 12.4 ± 1.7 | greater than 14 |
| 174 to 175 | 22.8 ± 1.7 | NNC(=O)c1noc(-c2ccc(F)cc2)c1CNc1ccccc1 [3 ca] | – | 10.25 | 7.63 | – | – | – | – | 8.57 | 174 ± 8.1 | 198 ± 5 | 20.3 ± 0.9 | – |
| 178.1 to 181.2 | > 200 | NNC(=O)c1noc(-c2ccc(F)cc2)c1CNc1ccc(Cl)cc1 [3 cb] | – | – | – | – | – | – | 4.67 | 4.04 | 694 ± 10.7 | 802 ± 11.4 | 172 ± 10.4 | – |
| 171.1 to 173.6 | 65.3 ± 3.6 | COc1ccc(NCc2c(C(=O)NN)noc2-c2ccc(F)cc2)cc1 [3 cc] | – | 2.54 | 2.29 | – | – | – | 2.80 | 2.53 | 150 ± 4.4 | 166 ± 9.6 | 59.2 ± 5.7 | – |
| 202.8 to 205.6 | 27.9 ± 2.3 | NNC(=O)c1noc(-c2ccc(Cl)cc2)c1CNc1ccccc1 [3 da] | – | 10.93 | 9.20 | – | – | – | 13.21 | 11.12 | 257 ± 6.8 | 305 ± 11.4 | 23.1 ± 1.5 | – |
| 175.9 to 177.8 | 55.7 ± 10.2 | NNC(=O)c1noc(-c2ccc(Cl)cc2)c1CNc1ccc(Cl)cc1 [3 db] | – | 6.84 | 6.03 | – | – | – | 6.44 | 5.68 | 336 ± 5.1 | 381 ± 4.2 | 59.1 ± 4.6 | – |
| 157 to 158.8 | 49.5 ± 2.9 | COc1ccc(NCc2c(C(=O)NN)noc2-c2ccc(Cl)cc2)cc1 [3 dc] | – | 6.25 | 4.24 | – | – | – | 5.55 | 3.76 | 210 ± 3.5 | 310 ± 8.9 | 55.8 ± 3.9 | – |
| 92.6 to 94.4 | 35.1 ± 4.6 | O=C(N/N=C/c1ccccc1)c1noc(-c2ccc([N+](=O)[O-])cc2)c1CNc1ccccc1 [4 aa, 3‐[(2E)‐N'‐(Benzylidene)hydrazinecarbonyl]‐4‐(phenyl)aminomethyl‐5‐(4‐nitrophenyl)isoxazole] | – | – | 2.86 | – | – | – | 2.90 | 2.47 | 100 ± 6 | 118 ± 7.3 | 40.7 ± 3.2 | – |
| 177.6 to 179 | 147 ± 10.7 | O=C(N/N=C/c1ccccc1)c1noc(-c2ccc([N+](=O)[O-])cc2)c1CNc1ccc(Cl)cc1 [4 ab] | – | 2.71 | 1.96 | – | – | – | 3.01 | 2.18 | 287.4 ± 2.3 | 398 ± 6.9 | 133 ± 8.8 | – |
| 169.9 to 172 | 69.6 ± 3.9 | O=C(N/N=C/c1ccccc1)c1noc(-c2ccccc2)c1CNc1ccccc1 [4 ba] | – | 5.87 | 5.54 | – | – | – | 5.32 | 5.02 | 385.6 ± 3.2 | 409 ± 7.8 | 76.8 ± 8.7 | – |
| 188.4 to 190.1 | 27 ± 1.1 | O=C(N/N=C/c1ccccc1)c1noc(-c2ccccc2)c1CNc1ccc(Cl)cc1 [4 bb] | – | 11.91 | 11.30 | – | – | – | 11.57 | 10.98 | 305 ± 7.4 | 322 ± 9.7 | 27.8 ± 0.7 | – |
| 197.6 to 199.6 | 26.7 ± 3.9 | COc1ccc(NCc2c(C(=O)N/N=C/c3ccccc3)noc2-c2ccccc2)cc1 [4 bc] | – | 7.85 | 6.61 | – | – | – | 9.75 | 8.20 | 176 ± 6.6 | 210 ± 4.7 | 21.5 ± 0.8 | – |
| 157.7 to 159.6 | 149 ± 10.3 | O=C(N/N=C/c1ccccc1)c1noc(-c2ccc(F)cc2)c1CNc1ccccc1 [4 ca] | – | 5.47 | 5.29 | – | – | – | 6.04 | 5.83 | 784 ± 10.6 | 814 ± 13.5 | 135 ± 11.4 | – |
| 167.9 to 170.5 | 98.7 ± 10.1 | O=C(N/N=C/c1ccccc1)c1noc(-c2ccc(F)cc2)c1CNc1ccc(Cl)cc1 [4 cb] | – | 3.86 | 3.69 | – | – | – | 4.37 | 4.18 | 365 ± 8.7 | 381 ± 6.9 | 87.3 ± 6.4 | – |
| 181.7 to 185.5 | 78.6 ± 7.4 | COc1ccc(NCc2c(C(=O)N/N=C/c3ccccc3)noc2-c2ccc(F)cc2)cc1 [4 cc] | – | 3.91 | 3.81 | – | – | – | 5.46 | 5.32 | 300 ± 8.9 | 308 ± 9.8 | 56.3 ± 8.5 | – |

| Compound | melting point [°C] | IC50 ([1]; epimastigote form, XTT) [µM] | IC50 [1] [µM] | SIT-F, selectivity index (Fibroblast CC50/T. cruzi IC50) [1] | SIT-M, selectivity index (Macrophages CC50/T. cruzi IC50) [1] | CC50 at 48 h [2] [µM] | CC50 at 72 h [3] [µM] | IC50 [4] [µM] | SIL-F, selectivity index (Fibroblast CC50/L. amazonensis IC50) [4] | SIL-M, selectivity index (Macrophages CC50/L. amazonensis IC50) [4] | CC50 at 48 h ([2]; J774 A1 macrophages) [µM] | CC50 at 72 h ([3]; L929 fibroblast cells) [µM] | IC50 ([4]; promastigote form, XTT) [µM] | Selectivity index (SI), overall ([4]; span over both cell lines (fibroblast, macrophages) and both parasites (L. amazonensis, T. cruzi)) |
| --- | --- | --- | --- | --- | --- | --- | --- | --- | --- | --- | --- | --- | --- | --- |
| NNC(=O)c1noc(-c2ccccc2)c1CNc1ccc(Cl)cc1 [3 bb] | 190.6 to 191.6 | – | 39 ± 7.1 | 7.38 | 5.93 | 231 ± 8.1 | 288 ± 9.9 | 35.7 ± 6 | 8.07 | 6.48 | – | – | – | – |
